The source of these data is patent publication US11890288B2, “Sulfonamide or sulfinamide compound having effect of inducing BRD4 protein degradation and pharmaceutical use thereof” (MITSUBISHI TANABE PHARMA CORPORATION, priority 2020, dated 2024).

SMILES strings stand for the structures.

For test [1], the system named is human prostate cancer LNCaP cells. The test can be described thus: Cytotoxic action on LNCaP cells (WST-8, 96 hr). The note with it: 96 hr culture. It is filed as cell-based. Put shortly:
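Cells were seeded in 10% FBS/RPMI1640 and cultured overnight at 37° C, 5% CO2, then exposed to compound (DMSO stock diluted in medium) for 96 hr. Viable cell number was measured with WST-8. IC50 is the concentration giving 50% survival versus untreated cells, interpolated linearly between the two bracketing points.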
On the technique in general: Formazan colour is commonly taken as a measure of viable cells.

Another test concerns the target BRD4 protein (Homo sapiens (Human), UniProt O60885). The test can be described thus: BRD4 protein degradation inducing action in LNCaP cells (immunofluorescence, 6 hr). To be noted: anti-BRD4 fluorescence intensity. Type of test: cell-based. Put shortly:
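Read-out is BRD4 immunofluorescence intensity (560/572 nm) after 6 hr compound treatment of LNCaP cells in 10% FBS/RPMI1640, with fixation, permeabilization and anti-BRD4 staining. Linear interpolation between the two concentrations flanking 50% of untreated intensity gives DC50.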

As a reminder, the IC50 is the midpoint of a concentration-inhibition curve. A higher IC50 goes with weaker potency in that assay. Usually DC50 stands for the concentration at which degradation of the target reaches its halfway point. Low values mean degradation at low concentration, high ones degradation only at high concentration. As for `Cc1sc2c(c1C)C(c1ccc(-c3ccc(C(=O)N[C@H](C)c4ccc(S(=O)(=O)Nc5ccc(C)c6c(C#N)c[nH]c56)cc4)cc3)cc1)=N[C@@H](CC(=O)OC(C)(C)C)c1nnc(C)n1-2` [Example Compound 134, t-butyl [(6S)-4-(4′-{[(1R)-1-{4-[(3-cyano-4-methyl-1H-indol-7-yl)sulfamoyl]phenyl}ethyl]carbamoyl}[1,1′-biphenyl]-4-yl)-2,3,9-trimethyl-6H-thieno[3,2-f][1,2,4]triazolo[4,3-a][1,4]diazepin-6-yl]acetate], in test [1], half-maximal inhibition (IC50) required 0.55 nM. For the same compound, half-maximal degradation on BRD4 protein (DC50) was put at 0.31 nM.

In turn, `CCc1ccc(NS(=O)(=O)c2ccc(CNC(=O)c3ccc(-c4ccc(C5=N[C@@H](CC(=O)OC(C)(C)C)c6nnc(C)n6-c6sc(C)c(C)c65)cc4)cc3)cc2)c2[nH]cc(C#N)c12` [Example Compound 135, t-butyl [(6S)-4-{4′-[({4-[(3-cyano-4-ethyl-1H-indol-7-yl)sulfamoyl]phenyl}methyl)carbamoyl][1,1′-biphenyl]-4-yl}-2,3,9-trimethyl-6H-thieno[3,2-f][1,2,4]triazolo[4,3-a][1,4]diazepin-6-yl]acetate] showed a half-inhibitory concentration (IC50) in test [1] of 0.66 nM. Also, the 50% degradation concentration (DC50) on BRD4 protein was found to be 0.38 nM.

On to `CCc1ccc(NS(=O)(=O)c2ccc([C@@H](C)NC(=O)c3ccc(-c4ccc(C5=N[C@@H](CC(=O)OC(C)(C)C)c6nnc(C)n6-c6sc(C)c(C)c65)cc4)cc3)cc2)c2[nH]cc(C#N)c12` [Example Compound 136, t-butyl [(6S)-4-(4′-{[(1R)-1-{4-[(3-cyano-4-ethyl-1H-indol-7-yl)sulfamoyl]phenyl}ethyl]carbamoyl}[1,1′-biphenyl]-4-yl)-2,3,9-trimethyl-6H-thieno[3,2-f][1,2,4]triazolo[4,3-a][1,4]diazepin-6-yl]acetate], for which half-maximal inhibition in test [1] (IC50) was put at 0.6 nM. Besides, half-maximal degradation on BRD4 protein (DC50) was put at 0.25 nM.

Turning to `CCc1ccc(NS(=O)(=O)c2ccc(CCNC(=O)c3ccc(-c4ccc(C5=N[C@@H](CC(=O)OC(C)(C)C)c6nnc(C)n6-c6sc(C)c(C)c65)cc4)cc3)cc2)c2[nH]cc(C#N)c12` [Example Compound 137, t-butyl [(6S)-4-{4′-[(2-{4-[(3-cyano-4-ethyl-1H-indol-7-yl)sulfamoyl]phenyl}ethyl)carbamoyl][1,1′-biphenyl]-4-yl}-2,3,9-trimethyl-6H-thieno[3,2-f][1,2,4]triazolo[4,3-a][1,4]diazepin-6-yl]acetate], the midpoint of inhibition in test [1], the IC50, lay at 0.48 nM. Moreover, the DC50 on BRD4 protein came to 0.13 nM.

As for `Cc1sc2c(c1C)C(c1ccc(-c3ccc(C(=O)NCc4ccc(S(=O)(=O)Nc5ccc(C)c6c(C#N)c[nH]c56)cc4)c(F)c3F)cc1)=N[C@@H](CC(=O)OC(C)(C)C)c1nnc(C)n1-2` [Example Compound 138, t-butyl [(6S)-4-{4′-[({4-[(3-cyano-4-methyl-1H-indol-7-yl)sulfamoyl]phenyl}methyl)carbamoyl]-2′,3′-difluoro[1,1′-biphenyl]-4-yl}-2,3,9-trimethyl-6H-thieno[3,2-f][1,2,4]triazolo[4,3-a][1,4]diazepin-6-yl]acetate], in test [1], the IC50 is 0.77 nM. The DC50 on BRD4 protein worked out at 0.32 nM.

The compound `Cc1sc2c(c1C)C(c1ccc(-c3ccc(C(=O)NCc4ccc(S(=O)(=O)Nc5ccc(C)c6c(C#N)c[nH]c56)cc4)c(F)c3)cc1)=N[C@@H](CC(=O)OC(C)(C)C)c1nnc(C)n1-2` [Example Compound 139, t-butyl [(6S)-4-{4′-[({4-[(3-cyano-4-methyl-1H-indol-7-yl)sulfamoyl]phenyl}methyl)carbamoyl]-3′-fluoro[1,1′-biphenyl]-4-yl}-2,3,9-trimethyl-6H-thieno[3,2-f][1,2,4]triazolo[4,3-a][1,4]diazepin-6-yl]acetate] registered an IC50 in test [1] of 0.45 nM. On BRD4 protein, the 50% degradation concentration (DC50) was determined as 0.25 nM.
